Laboratory results from patent publication US7112586B2, “Substituted diamine derivatives useful as motilin antagonists” (Ortho-McNeil Pharmaceutical, Inc., priority 2000, dated 2006).

How the values were obtained:
[1] = target: T1, motilin receptor preparation (Human antrum tissue) (Homo sapiens, UniProt O43193); experiment: 125I-motilin binding to human antral stomach membranes; design: % Inh (Human antrum): dose or concentration left out as unconfirmed; conditions: for inhibition at 1 µM: read-out: Human Antrum % Inh @1 μM
T1 construct: Human antrum tissue from Analytical Biological Services (Wilmington, Del.) was prepared as a motilin receptor preparation; tissue Analytical Biological Services (Wilmington, Del.); host or cells: human antrum (stomach) muscle tissue, crude membrane homogenate
Procedure: Human antrum tissue from Analytical Biological Services (Wilmington, Del.) was prepared as a motilin receptor preparation in the following manner. The muscle tissue was homogenized in 10 volumes of 50 mM Tris-Cl, 10 mM MgCl2, 0.1 mg/ml bacitracin, and 0.25 mM Peflabloc, pH 7.5) in a Polytron (29000 rpm, 4×15 seconds). The homogenate was centrifuged at 1000×g for 15 minutes and the supernatant discarded. The pellet was washed twice before being suspended in homogenizing buffer. The crude homogenate was resuspended through a 23 gauge needle before aliquoting and storing at −80° C. The human cloned receptor was prepared from HEK 293 cells overexpressed with the motilin receptor. Cell pellets were thawed and resuspended in 2–3 volumes of homogenizing buffer (10 mM Tris-Cl, 0.2 mM MgCl2, 5 mM KCl, 5 μg/ml aprotinin, leupeptin, and pepstatin A, and 50 μg/ml bacitracin, pH 7.5) and allowed to sit on ice for 15–20 minutes. The suspension was homogenized on ice in a Dounce type homogenizer using 15 strokes. Sucrose and EDTA were added to a final concentration of 0.25M and 1 mM, respectively, and mixed with a few additional strokes. The material was centrifuged at 400×g for 5 minutes, and the supernatant saved. The pellet was re-resuspended twice with 5 ml homogenizing buffer and rehomogenized as before, and the supernatants combined. The supernatant was centrifuged at 100000×g for 1 hour. The pellet is retained and resuspended with 5 ml of homogenizing buffer through a 19 g and 25 g needle. The suspension is aliquoted and stored at −80° C. until used. The binding assay contains the following components (50 mM HEPES, 5 mM MgCl2, and 1 mM EGTA, pH 7.0, 15 mg/ml BSA, 10 μg/ml aprotinin, leupeptin, and pepstatin A, 0.25 mg/ml bacitracin, and 10 mM benzamidine), ^125I-radiolabelled porcine motilin (50000–70000 cpm; specific activity 2000 Ci/mmol), test compound, and membrane protein. After 60 minutes at 30° C., the samples are placed on ice and centrifuged for 1 minute at 13000×g. The pellet is washed twice with 1 ml cold saline, and after removal of the final supernatant, the pellet at the bottom of the tube is counted in a gamma counter. Non-specific binding is measured by the inclusion of 1 μM unlabelled motilin. IC50 values were determined from Kaleidograph curves.
125I-Motilin Binding to Human Antral Stomach Membranes and the Human Cloned Receptor: […]

[2] = target: T2, human cloned receptor (motilin receptor) (Homo sapiens, UniProt O43193); experiment: 125I-motilin binding to human cloned receptor (HEK 293 cells overexpressed with the motilin receptor); conditions: HEK 293 membranes
T2 construct: expressed in transfected cells; host or cells: HEK 293 cells
Procedure: Human antrum tissue from Analytical Biological Services (Wilmington, Del.) was prepared as a motilin receptor preparation in the following manner. The muscle tissue was homogenized in 10 volumes of 50 mM Tris-Cl, 10 mM MgCl2, 0.1 mg/ml bacitracin, and 0.25 mM Peflabloc, pH 7.5) in a Polytron (29000 rpm, 4×15 seconds). The homogenate was centrifuged at 1000×g for 15 minutes and the supernatant discarded. The pellet was washed twice before being suspended in homogenizing buffer. The crude homogenate was resuspended through a 23 gauge needle before aliquoting and storing at −80° C. The human cloned receptor was prepared from HEK 293 cells overexpressed with the motilin receptor. Cell pellets were thawed and resuspended in 2–3 volumes of homogenizing buffer (10 mM Tris-Cl, 0.2 mM MgCl2, 5 mM KCl, 5 μg/ml aprotinin, leupeptin, and pepstatin A, and 50 μg/ml bacitracin, pH 7.5) and allowed to sit on ice for 15–20 minutes. The suspension was homogenized on ice in a Dounce type homogenizer using 15 strokes. […] The pellet is washed twice with 1 ml cold saline, and after removal of the final supernatant, the pellet at the bottom of the tube is counted in a gamma counter. Non-specific binding is measured by the inclusion of 1 μM unlabelled motilin. IC50 values were determined from Kaleidograph curves. […]

[3] = tested on: motilin induced contraction; experiment: Rabbit tissue bath procedure: inhibition of motilin induced contraction of duodenum segments; design: species or system New Zealand White rabbit; conditions: 3 nM porcine motilin induced contraction, read-out: Tissues IC50
Procedure: Rabbit Tissue Bath Procedure
One New Zealand White rabbit (Covance) of either sex was euthanized with an IV injection of Sleepaway. The duodenum was quickly excised, the lumen rinsed with saline to clean, and the tissue placed in cold, aerated (95% O2–5% CO2) Tyrodes buffer (NaCl 136.9 mM, KCl 2.7 mM, CaCl2 1.8 mM, MgCl2 1.04 mM, NaH2PO4 0.42 mM, NaHCO3 11.9 mM, Glucose 5.55 mM, pH 7.4). The duodenum, being kept moist at all times, was cleaned of any excess mesenteric tissue, and then cut into 3 cm segments starting at the proximal end. Sixteen tissue segments were usually prepared from each duodenum. These segments were tied on both ends with 3-0 silk suture (Ethicon). One end of the tissue was attached to an S-hook on a custom made glass support rod (Crown Glass Co., Somerville) and the rod plus tissue were placed in a 15 ml isolated tissue bath (Radnoti). The other end of the glass rod was attached to a Grass Force Displacement Transducer FT03. The tissue was maintained in room temperature Tyrodes buffer pH 7.4 and continually gassed with 95% O2— 5% CO2. The tissues were adjusted to 1.0 g resting tension and maintained at that tension throughout the equilibration period. An Ml2 Tissue Bath Computer was used to record and analyze data.
The tissues were washed twice during a 30 minute equilibration period and readjusted to 1 g resting tension as necessary. After equilibration the tissues were challenged with 3 μM Carbachol (Carbamoylcholine Chloride-Sigma). After maximal contraction was attained, the tissues were washed 3 times with Tyrodes. The tissues were allowed a 20 minute resting/equilibration period, during which time they were washed once and readjusted to 1 g resting tension. The tissues were challenged a second time with 3 μM Carbachol, and this contraction was considered as maximal, or 100% contraction. The tissues were washed 3 times, equilibrated for 10 minutes, washed again and readjusted to 1 g resting tension. Vehicle or test compound in 30% DMSO-50 mM HEPES was added directly to the bath and the tissues were incubated for 20 minutes. Test compounds and vehicle were run in duplicate.
The percent inhibition by test compound of the motilin induced contraction was calculated by first determining the ratio of the vehicle contractions with Motilin compared to the Carbachol contractions. This Tissue Adjustment Factor (TAF) was used to determine the value for the potential uninhibited contraction with Motilin for each tissue. The percent inhibition was then determined by dividing the actual Motilin contraction in treated tissues by the potential uninhibited contraction and subtracting this number from 1. IC50 values were determined by graphing results with Kaleidograph graphing program.

Motilin Receptor = target: T3, Motilin Receptor (Oryctolagus cuniculus, UniProt G1T803); experiment: Motilin receptor binding, rabbit colon membranes, 125I porcine motilin; design: Rabbit Colon % Inh / inhibition / % Inh (Rabbit colon): dose or concentration left out as unconfirmed; conditions: rabbit colon membranes; 125I porcine motilin binding
T3 construct: The muscle tissue was homogenized in 10 volumes of 50 mM Tris-Cl; from tissue; host or cells: rabbit colon smooth muscle, crude membrane homogenate
T3 sequence (G1T803 1-400): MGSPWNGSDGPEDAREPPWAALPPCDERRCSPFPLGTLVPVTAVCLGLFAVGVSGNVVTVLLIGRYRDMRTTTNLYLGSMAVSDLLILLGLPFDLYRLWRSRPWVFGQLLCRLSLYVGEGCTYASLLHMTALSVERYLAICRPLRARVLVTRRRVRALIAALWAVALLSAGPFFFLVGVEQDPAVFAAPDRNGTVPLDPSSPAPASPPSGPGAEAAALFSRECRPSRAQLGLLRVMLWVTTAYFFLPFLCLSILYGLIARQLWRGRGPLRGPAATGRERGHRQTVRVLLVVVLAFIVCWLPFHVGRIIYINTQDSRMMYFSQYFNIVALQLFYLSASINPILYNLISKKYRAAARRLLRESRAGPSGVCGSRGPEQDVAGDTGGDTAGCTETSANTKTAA

T1 sequence (O43193 whole entry): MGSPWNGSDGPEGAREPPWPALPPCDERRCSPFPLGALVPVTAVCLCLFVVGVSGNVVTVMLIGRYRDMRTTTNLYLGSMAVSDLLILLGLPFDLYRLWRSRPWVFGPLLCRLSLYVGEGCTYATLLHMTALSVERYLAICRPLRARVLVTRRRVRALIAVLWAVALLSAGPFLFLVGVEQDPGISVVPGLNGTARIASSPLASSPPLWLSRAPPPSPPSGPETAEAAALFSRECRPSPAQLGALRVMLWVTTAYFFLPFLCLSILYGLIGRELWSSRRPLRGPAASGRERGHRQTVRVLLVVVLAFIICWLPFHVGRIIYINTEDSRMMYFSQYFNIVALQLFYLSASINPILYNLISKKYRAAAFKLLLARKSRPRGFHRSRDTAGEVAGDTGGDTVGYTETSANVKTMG
T2 sequence (O43193 whole entry): as above

| IC50 [3] [nM] | inhibition at 1 µM ([1]; human antrum membranes, @1 μM) [%] | IC50 ([1]; human antrum membranes) [nM] | SMILES | further results |
| --- | --- | --- | --- | --- |
| 9 | 100 | 32 | CC(C)(C)C(=O)N(Cc1cccc(Cl)c1)C1CCCC(CN(C(=O)c2ccc(F)cc2)c2cccc(OCCN3CCCC3)c2)C1 (stereo not drawn) [compound 226] | – |
| – | 100 | 25 | CC(C)(C)C(=O)N(Cc1ccc(F)c(F)c1)C1CCCC(CN(C(=O)c2ccc(F)cc2)c2cccc(OCCN3CCCC3)c2)C1 (stereo not drawn) [compound 228] | – |

Continued, compound first:

| SMILES | IC50 [3] [nM] | inhibition at 1 µM ([1]; human antrum membranes, @1 μM) [%] | IC50 ([1]; human antrum membranes) [nM] | further results |
| --- | --- | --- | --- | --- |
| CC[C@H](C)[C@H](NC(=O)[C@@H]1CCCN1C(=O)[C@@H](NC(=O)[C@@H](N)Cc1ccccc1)C(C)C)C(=O)N[C@@H](Cc1ccccc1)C(=O)N[C@H](C(=O)N[C@@H](Cc1ccc(O)cc1)C(=O)NCC(=O)N[C@@H](CCC(=O)O)C(=O)N[C@@H](CC(C)C)C(=O)N[C@@H](CCC(N)=O)C(=O)N[C@@H](CCCNC(=N)N)C(=O)N[C@@H](CCSC)C(=O)N[C@@H](CCC(N)=O)C(=O)N[C@@H](CCC(=O)O)C(=O)N[C@@H](CCCCN)C(=O)N[C@@H](CCC(=O)O)C(=O)N[C@@H](CCCNC(=N)N)C(=O)N[C@@H](CC(N)=O)C(=O)N[C@@H](CCCCN)C(=O)NCC(=O)N[C@@H](CCC(N)=O)C(=O)O)[C@@H](C)O [Motilin] | – | – | – | IC50 ([1]; 125I-Motilin binding to human antral stomach membranes): 1 ± 0.1 nM; IC50 [2]: 3.55 ± 0.05 nM |
| O=C(c1ccc(F)cc1)N(C[C@H]1CC[C@@H](N(Cc2ccccc2)C(=O)C(Cl)(Cl)Cl)C1)c1cccc(OCCN2CCCC2)c1 [compound 218] | 35 | 98 | – | – |
| O=C(c1ccc(F)cc1)N(CC1CCCC(N(Cc2ccccc2)Cc2ccccc2)C1)c1cccc(OCCN2CCCC2)c1 (stereo not drawn) [compound 222] | – | – | – | % Inh (Rabbit colon) (Motilin Receptor): 83%; % Inh (Human antrum) ([1]; human antrum membranes, 125I porcine motilin binding): 83% |
| O=C(c1ccc(F)cc1)N(C[C@H]1CC[C@@H](N(Cc2ccccc2)C(=O)C(Cl)(Cl)Cl)C1)c1cccc(OCCN2CCCC2)c1 [compound 231] | – | – | – | Human Antrum % Inh @1 μM ([1]; human antrum membranes, @1 μM): 88% |
